# Literature values as cited in PubChem BioAssay AID1259409 (Chemical Carcinogenesis Research Information System (CCRIS), 2018).
# Tested on: rodent chemically induced tumor inhibition, incidence and multiplicity
# Assay: CCRIS tumor inhibitor studies
# Settings: Route [Inhibitor]: ORAL, Promoter: NONE USED
structure (smiles),measurement,setting,value
Cc1c(-c2cnccn2)ssc1=S,"tumour outcome (control, treated, inhibition, significance)","Carcinogen: AZOXYMETHANE, 25843-45-2, Dose [Inhibitor]: 0, 200 PPM IN DIET FOR 56 WK BEGINNING 2 WK PRIOR TO CARCINOGEN TREATMENT (STUDY DURATION: 56 WK), Species: RAT, Strain/Sex: F344/MALE, Target Tissue: Type of Lesion: SMALL INTESTINE (DISTAL): TUMOR, Dose [Carcinogen]: 15 MG/KG 1/WK FOR 2 WK","12%, 5%, 58%, not significant"
same,"tumour outcome (control, treated, inhibition, significance)","Carcinogen: AZOXYMETHANE, 25843-45-2, Dose [Inhibitor]: 0, 200 PPM IN DIET FOR 56 WK BEGINNING 2 WK PRIOR TO CARCINOGEN TREATMENT (STUDY DURATION: 56 WK), Species: RAT, Strain/Sex: F344/MALE, Target Tissue: Type of Lesion: SMALL INTESTINE (PROXIMAL): TUMOR, Dose [Carcinogen]: 15 MG/KG 1/WK FOR 2 WK","33%, 14%, 58%, not significant"
same,"tumour outcome (control, treated, inhibition, significance)","Carcinogen: AZOXYMETHANE, 25843-45-2, Dose [Inhibitor]: 0, 400 PPM IN DIET 7 WK PRIOR TO CARCINOGEN TREATMENT AND CONTINUING FOR STUDY DURATION (STUDY DURATION: 59 WK), Species: RAT, Strain/Sex: F344/MALE, Target Tissue: Type of Lesion: COLON: ADENOCARCINOMA, Dose [Carcinogen]: 15 MG/KG 1/WK FOR 2 WK","72%, 50%, 31%, p<0.05"
same,"tumour outcome (control, treated, inhibition, significance)","Carcinogen: AZOXYMETHANE, 25843-45-2, Dose [Inhibitor]: 0, 400 PPM IN DIET 7 WK PRIOR TO CARCINOGEN TREATMENT AND CONTINUING FOR STUDY DURATION (STUDY DURATION: 59 WK), Species: RAT, Strain/Sex: F344/MALE, Target Tissue: Type of Lesion: COLON: ADENOMA, Dose [Carcinogen]: 15 MG/KG 1/WK FOR 2 WK","14%, 8%, 43%, not calculated"
same,"tumour outcome (control, treated, inhibition, significance)","Carcinogen: AZOXYMETHANE, 25843-45-2, Dose [Inhibitor]: 0, 400 PPM IN DIET 7 WK PRIOR TO CARCINOGEN TREATMENT AND CONTINUING FOR STUDY DURATION (STUDY DURATION: 59 WK), Species: RAT, Strain/Sex: F344/MALE, Target Tissue: Type of Lesion: SMALL INTESTINE: ADENOCARCINOMA, Dose [Carcinogen]: 15 MG/KG 1/WK FOR 2 WK","50%, 8%, 84%, p<0.001"
same,"tumour outcome (control, treated, inhibition, significance)","Carcinogen: AZOXYMETHANE, 25843-45-2, Dose [Inhibitor]: 0, 400 PPM IN DIET 7 WK PRIOR TO CARCINOGEN TREATMENT AND CONTINUING FOR STUDY DURATION (STUDY DURATION: 59 WK), Species: RAT, Strain/Sex: F344/MALE, Target Tissue: Type of Lesion: SMALL INTESTINE: ADENOMA, Dose [Carcinogen]: 15 MG/KG 1/WK FOR 2 WK","3%, 0%, 100%, not calculated"
same,"tumour outcome (control, treated, inhibition, significance)","Carcinogen: AZOXYMETHANE, 25843-45-2, Dose [Inhibitor]: 0, 400 PPM IN DIET FOR 56 WK BEGINNING 2 WK PRIOR TO CARCINOGEN TREATMENT (STUDY DURATION: 56 WK), Species: RAT, Strain/Sex: F344/MALE, Target Tissue: Type of Lesion: COLON (DISTAL): TUMOR, Dose [Carcinogen]: 15 MG/KG 1/WK FOR 2 WK","47%, 36%, 23%, not significant"
same,"tumour outcome (control, treated, inhibition, significance)","Carcinogen: AZOXYMETHANE, 25843-45-2, Dose [Inhibitor]: 0, 400 PPM IN DIET FOR 56 WK BEGINNING 2 WK PRIOR TO CARCINOGEN TREATMENT (STUDY DURATION: 56 WK), Species: RAT, Strain/Sex: F344/MALE, Target Tissue: Type of Lesion: COLON (PROXIMAL): TUMOR, Dose [Carcinogen]: 15 MG/KG 1/WK FOR 2 WK","39%, 36%, 8%, not significant"
same,"tumour outcome (control, treated, inhibition, significance)","Carcinogen: AZOXYMETHANE, 25843-45-2, Dose [Inhibitor]: 0, 400 PPM IN DIET FOR 56 WK BEGINNING 2 WK PRIOR TO CARCINOGEN TREATMENT (STUDY DURATION: 56 WK), Species: RAT, Strain/Sex: F344/MALE, Target Tissue: Type of Lesion: SMALL INTESTINE (PROXIMAL): TUMOR, Dose [Carcinogen]: 15 MG/KG 1/WK FOR 2 WK","33%, 5%, 85%, p<0.05"
same,"tumour outcome (control, treated, inhibition, significance)","Carcinogen: AZOXYMETHANE, 25843-45-2, Dose [Inhibitor]: 0, 400 PPM IN DIET FOR 56 WK BEGINNING 2 WK PRIOR TO CARCINOGEN TREATMENT (STUDY DURATION: 56 WK), Species: RAT, Strain/Sex: F344/MALE, Target Tissue: Type of Lesion: SMALL INTESTINE(DISTAL): TUMOR, Dose [Carcinogen]: 15 MG/KG 1/WK FOR 2 WK","12%, 5%, 58%, not significant"
same,"tumour outcome (control, treated, inhibition, significance)","Carcinogen: AZOXYMETHANE, 25843-45-2, Dose [Inhibitor]: O, 200 PPM IN DIET 7 WK PRIOR TO CARCINOGEN TREATMENT AND CONTINUING FOR STUDY DURATION (STUDY DURATION: 59 WK), Species: RAT, Strain/Sex: F344/MALE, Target Tissue: Type of Lesion: SMALL INTESTINE, ADENOMA, Dose [Carcinogen]: 15 MG/KG 1/WK FOR 2 WK","3%, 0%, 100%, not calculated"
same,"tumour outcome (control, treated, inhibition, significance)","Carcinogen: BENZO[A]PYRENE, 50-32-8, Dose [Inhibitor]: 0, 180 PPM IN DIET FOR 36 WK BEGINNING 48 HR PRIOR TO CARCINOGEN DOSE (STUDY DURATION: 36 WK), Species: MOUSE, Strain/Sex: STRAIN-A/FEMALE, Target Tissue: Type of Lesion: LUNG: TUMOR, Dose [Carcinogen]: 100 MG/KG IN 0.1 ML OF TRICAPRYLIN ONCE","100%, 100%, 0%, not significant"
same,"tumour outcome (control, treated, inhibition, significance)","Carcinogen: BENZO[A]PYRENE, 50-32-8, Dose [Inhibitor]: 0, 360 PPM IN DIET FOR 36 WK BEGINNING 48 HR PRIOR TO CARCINOGEN DOSE (STUDY DURATION: 36 WK), Species: MOUSE, Strain/Sex: STRAIN-A/FEMALE, Target Tissue: Type of Lesion: LUNG: TUMOR, Dose [Carcinogen]: 100 MG/KG IN 0.1 ML OF TRICAPRYLIN ONCE","100%, 100%, 0%, not significant"
same,"tumour outcome (control, treated, inhibition, significance)","Carcinogen: DIETHYLNITROSAMINE, 55-18-5, Dose [Inhibitor]: 0, 300 MG/KG DIET FOR DURATION OF STUDY BEGINNING 1 WK PRIOR TO CARCINOGEN TREATMENT (STUDY DURATION: 25 WK), Species: HAMSTER, Strain/Sex: SYRIAN/MALE, Target Tissue: Type of Lesion: LUNG: CARCINOMA, Dose [Carcinogen]: 17.8 MG/KG BW 2/WK FOR 20 WK","50%, 33%, 34%, not significant"
same,"tumour outcome (control, treated, inhibition, significance)","Carcinogen: DIETHYLNITROSAMINE, 55-18-5, Dose [Inhibitor]: 0, 300 MG/KG DIET FOR DURATION OF STUDY BEGINNING 1 WK PRIOR TO CARCINOGEN TREATMENT (STUDY DURATION: 25 WK), Species: HAMSTER, Strain/Sex: SYRIAN/MALE, Target Tissue: Type of Lesion: TRACHEA: PAPILLOMA, Dose [Carcinogen]: 17.8 MG/KG BW 2/WK FOR 20 WK","95%, 85%, 11%, not significant"
same,"tumour outcome (control, treated, inhibition, significance)","Carcinogen: DIETHYLNITROSAMINE, 55-18-5, Dose [Inhibitor]: 0, 600 MG/KG DIET FOR DURATION OF STUDY BEGINNING 1 WK PRIOR TO CARCINOGEN TREATMENT (STUDY DURATION: 25 WK), Species: HAMSTER, Strain/Sex: SYRIAN/MALE, Target Tissue: Type of Lesion: LUNG: CARCINOMA, Dose [Carcinogen]: 17.8 MG/KG BW 2/WK FOR 20 WK","60%, 0%, 100%, p<0.0001"
